In patent publication US11707444B2, “Antiviral composition for SARS-CoV-2 containing cannabinoids as active ingredient” (priority 2020, dated 2023):
pIC50: −log10 of the molar value. Read-outs that look alike come from different tables or passages of the source.

Assays:
SARS-CoV-2 = assay: microbe, parasite or virus in culture; type: cell-based, SARS-CoV-2 (βCoV/KOR/KCDC03/2020)
CBR2 = CBR2 (Homo sapiens, UniProt P34972); details: reported (Pertwee 2008); cited from earlier work
[1] = 100 mg of CBD, healthy volunteers, reported; cited from earlier work
[2] = cited from earlier work
[3] = 0.3 mg/kg/day, report; cited from earlier work
Vero cells = assay: Vero cell viability in the dose-response curve assay; type: cell-based
Protocol: Dose-response curve (DRC) analysis was performed according to a conventionally known method (Jeon, S., Ko, M., Lee, J., Choi, I., Byun, S Y, Park, S., Shum, D., and Kim, S. (2020). Identification of antiviral drug candidates against SARS-CoV-2 from FDA-approved drugs. Antimicrobial Agents and Chemotherapy). Briefly, the Vero cells were seeded at 1.2×10^4 cells per well in DMEM containing 1× Antibiotic-Antimycotic solution (Gibco) and 2% FBS in a 384-well, μClear plate (Greiner Bio-One) and maintained for 24 h. After that, the cells were treated twice with compounds in the concentration range of 0.05-100 μM. A 9-point dose-response curve (DRC) was generated. For viral infection, the plate was transferred to a BSL-3 isolation facility and SARS-CoV-2 was added to an MOI value of 0.0125. Next, the cells were fixed at 24 hpi with 4% PFA and measured using the immunofluorescence method Operetta (Perkin Elmer).
Images acquired using software within the Pasteur Institute in Korea were used to estimate the infection rate and cell number, and antiviral activity was normalized to negative (0.5% DMSO) and positive controls (mock). The dose-response curve (DRC) was measured using the sigmoidal dose-response model Y=Bottom+(Top−Bottom)/(1+(IC50/X)^Hillslope) using Prism or 7XLfit 4 software. Finally, IC50 values were measured for curves fitted to the normalized activity data set. […]

[4] = Severe acute respiratory syndrome coronavirus 2, Vero; read-out: IC50, antiviral activity against SARS-CoV-2

Sequence of CBR2 (P34972 whole entry): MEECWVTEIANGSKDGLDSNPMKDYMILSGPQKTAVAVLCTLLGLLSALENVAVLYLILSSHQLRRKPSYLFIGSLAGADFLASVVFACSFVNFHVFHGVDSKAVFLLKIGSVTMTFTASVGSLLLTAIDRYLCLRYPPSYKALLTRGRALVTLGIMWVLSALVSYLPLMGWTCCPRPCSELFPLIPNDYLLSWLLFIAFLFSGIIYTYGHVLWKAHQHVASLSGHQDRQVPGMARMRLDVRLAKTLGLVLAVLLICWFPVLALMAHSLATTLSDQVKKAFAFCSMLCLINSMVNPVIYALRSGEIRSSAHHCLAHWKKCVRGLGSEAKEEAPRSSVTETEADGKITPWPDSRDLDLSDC

Work on CCC(CC)COC(=O)[C@H](C)N[P@](=O)(OC[C@H]1O[C@@](C#N)(c2ccc3c(N)ncnn23)[C@H](O)[C@@H]1O)Oc1ccccc1 [remdesivir, reference compound] yielded a pIC50 (SARS-CoV-2; Severe acute respiratory syndrome coronavirus 2, Vero, read-out: IC50, antiviral activity against SARS-CoV-2) of 4.88.

In the case of C=C(C)[C@@H]1CCC(C)=C[C@H]1c1c(O)cc(CCCCC)c(C(=O)O)c1O [Compound T23, Cannabidiolic acid], the pIC50 (SARS-CoV-2; [4]) was 4.42.

In the case of CCCCCc1cc(O)c2c(c1)OC(C)(C)[C@@H]1CCC(C)=C[C@@H]21 [Compound T4, Δ^9-Tetrahydrocannabinol], the “action at CBR2” value (CBR2) is given as “partial agonist” and the pIC50 (SARS-CoV-2; [4]) is given as 4.99.

CCCCCc1cc(O)c2c(c1)OC(C)(C)c1ccc(C)cc1-2 [Compound T7, Cannabinol] gave a pIC50 (SARS-CoV-2; [4]) of 4.96.

For Cc1cccc(C)c1OCC(=O)N[C@@H](Cc1ccccc1)[C@@H](O)C[C@H](Cc1ccccc1)NC(=O)[C@H](C(C)C)N1CCCNC1=O [lopinavir, reference compound], the pIC50 (SARS-CoV-2; [4]) was 5.01.

For C=C(C)[C@@H]1CCC(C)=C[C@H]1c1c(O)cc(CCCCC)cc1O [Compound T22, Cannabidiol], the safety and tolerability [1] is given as “safe and tolerable”, the “dose reported to be safe” value [2] is given as “up to 60 mg per day” and the “effect in Crohn's disease” value [3] is given as “effective”. The Vero cell viability (Vero cells; at 12.50 μM) was 97.46%, the host cell viability (Vero cells; at 50 μM) was “decreased sharply” and the pIC50 (SARS-CoV-2; [4]) was 5.10. It also gave an inhibition at 12.5 µM (SARS-CoV-2; Severe acute respiratory syndrome coronavirus 2; at 12.50 μM, Vero cells) of 99.2%.

Compound CCN(CC)CCCC(C)Nc1ccnc2cc(Cl)ccc12 (stereo not drawn) [chloroquine, reference compound] has a pIC50 (SARS-CoV-2; [4]) of 5.09.

CCCCCc1cc2c(c(O)c1C(=O)O)[C@@H]1C=C(C)CC[C@H]1C(C)(C)O2 [Compound T3, Δ9-Tetrahydrocannabinolic acid] showed a pIC50 (SARS-CoV-2; [4]) of 4.88.
